Results published in paper PMC4565880, “Purification and characterization of a novel β-carotene-9′,10′-oxygenase from Saccharomyces cerevisiae ULI3” (Biotechnology Letters, 2015).

Each molecule was assayed on T1, ScBCO2 (β-carotene-9′,10′-oxygenase) (assay: HPLC cleavage assay; Hanes-Woolf plot). Settings: standard assay: 100 mM Tricine/KOH pH 8.0, 37 °C, 12.5 μM Fe2SO4, Tween 40; temperature of kinetic runs not stated; substrate 10-800 μM.
T1 construct: native enzyme purified from culture supernatant (ammonium sulfate, Q Sepharose, Superdex-200); ~50 kDa by SDS-PAGE; peptide mass fingerprint matched no database entry
Assay type: biochemical, Saccharomyces cerevisiae
From the text: HPLC cleavage assay; Hanes-Woolf plot on ScBCO2 (β-carotene-9′,10′-oxygenase)
Molecule `CC1=C[C@H](O)CC(C)(C)[C@H]1/C=C/C(C)=C/C=C/C(C)=C/C=C/C=C(C)/C=C/C=C(C)/C=C/C1=C(C)C[C@@H](O)CC1(C)C` [Lutein] has a Km of 105 ± 0.3 µM. In the case of `CC1=CCCC(C)(C)[C@H]1/C=C/C(C)=C/C=C/C(C)=C/C=C/C=C(C)/C=C/C=C(C)/C=C/C1=C(C)CCCC1(C)C` [α-carotene], the Km is reported as 48 ± 0.3 µM. Work on `CC1=C(/C=C/C(C)=C/C=C/C(C)=C/C=C/C=C(C)/C=C/C=C(C)/C=C/C2=C(C)CCCC2(C)C)C(C)(C)CCC1` [β-carotene] yielded a Km of 37 ± 0.2 µM.
